Values of other authors in PubChem BioAssay AID1259409 (Chemical Carcinogenesis Research Information System (CCRIS), 2018).

Test system: rodent chemically induced tumor inhibition, incidence and multiplicity
Assay: CCRIS tumor inhibitor studies
Details: Carcinogen: N-HYDROXY-2-ACETYLAMINOFLUORENE, 53-95-2, Dose [Inhibitor]: 0, 0.04 UMOL/G BW IN 10 µL/G BW TRIOCTANOIN ONCE 45 MIN PRIOR TO CARCINOGEN DOSE (STUDY DURATION: 10 MO), Route [Inhibitor]: INTRAPERITONEAL, Species: MOUSE, Strain/Sex: B6C3F1/MALE, Target Tissue: Type of Lesion: LIVER: HEPATOMA, Promoter: NONE USED

In the case of `Oc1c(Cl)c(Cl)c(Cl)c(Cl)c1Cl`, the “tumour outcome (control, treated, inhibition, significance)” value (Dose [Carcinogen]: 0.06 UMOL/G BW IN 5 µL/G BW OF 80% DMSO) is given as 34/34 (100%), 19/33 (58%), 42%, not calculated, the “tumour outcome (control, treated, inhibition, significance)” value (Dose [Carcinogen]: 0.11 UMOL/G BW IN 5 µL/G BW OF 80% DMSO) is given as 33/33 (100%), 31/37 (84%), 16%, not calculated and the “tumour outcome (control, treated, inhibition, significance)” value (Dose [Carcinogen]: 0.22 UMOL/G BW IN 5 µL/G BW OF 80% DMSO) is given as 39/39 (100%), 31/41 (76%), 24%, not calculated.
